What was measured:
Assay in all cases: relative viability (nuclei count vs DMSO), 5 days (fraction); higher = more cells survive
Cabozantinib + Foretinib = compound: COc1cc2nccc(Oc3ccc(NC(=O)C4(C(=O)Nc5ccc(F)cc5)CC4)cc3)c2cc1OC [Cabozantinib] + COc1cc2c(Oc3ccc(NC(=O)C4(C(=O)Nc5ccc(F)cc5)CC4)cc3F)ccnc2cc1OCCCN1CCOCC1 [Foretinib] (partner 0.25 µM)
Method in brief: (§1)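 Nuclei were stained with Hoechst during a one-step fixation (final 0.05% Triton X-100, 1% formaldehyde, 1 ug/ml Hoechst) carried out 5 days after dosing, then counted on 4× images. The cells, lung cancer lines in 1536-well plates, had been dosed by pin tool the day after seeding with one drug alone or a fixed anchor-drug dose plus five library-drug doses (not always all listed) in √10 steps. Relative viability is the nuclei count in treated wells divided by that in vehicle wells, and each value is the median of duplicate plates.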

Kobe2602 + Decitabine = compound: C1=CC(=CC=C1NC(=S)NNC2=C(C=C(C=C2[N+](=O)[O-])C(F)(F)F)[N+](=O)[O-])F [Kobe2602] + Nc1ncn([C@H]2C[C@H](O)[C@@H](CO)O2)c(=O)n1 [Decitabine] (partner 2 µM)
Method in brief: as §1

[1] = compound: COc1cc2nccc(Oc3ccc(NC(=O)C4(C(=O)Nc5ccc(F)cc5)CC4)cc3)c2cc1OC [Cabozantinib] + CC(C)C[C@H](NC(=O)[C@H](Cc1ccccc1)NC(=O)c1cnccn1)B(O)O [Bortezomib] (partner 0.002 µM)
Method in brief: as §1

Cell Line	relative viability (Cabozantinib + Foretinib; first compound 0.02 µM)	relative viability (Cabozantinib + Foretinib; first compound 0.06325 µM)	relative viability (Cabozantinib + Foretinib; first compound 0.2 µM)	relative viability (Cabozantinib + Foretinib; first compound 0.6325 µM)	relative viability (Cabozantinib + Foretinib; first compound 2 µM)	relative viability (Kobe2602 + Decitabine; first compound 0.2 µM)	relative viability (Kobe2602 + Decitabine; first compound 0.6325 µM)	relative viability (Kobe2602 + Decitabine; first compound 2 µM)	relative viability (Kobe2602 + Decitabine; first compound 6.325 µM)	relative viability (Kobe2602 + Decitabine; first compound 20 µM)	relative viability ([1]; first compound 0.02 µM)	relative viability ([1]; first compound 0.06325 µM)	relative viability ([1]; first compound 0.6325 µM)	relative viability ([1]; first compound 2 µM)	relative viability ([1]; first compound 0.2 µM)
SW 900	0.848	0.952	0.837	0.695	0.968	0.559	0.454	0.411	0.452	0.387					
NCI-H358	0.662	0.839	0.668	0.662	0.652	0.222	0.219	0.225	0.177	0.244					
PC-3 [JPC-3]	1.19	1.2		1.09	1.04	0.856	0.895	0.84	0.754	0.787	0.802	0.992	0.863	0.867	
NCI-H1651	1	0.739	1.05	0.875	0.783	0.588	0.481	0.71	0.578	0.936	0.883	1.03	0.904	0.985	0.891
HCC-827	1.05	1.05		1.1	0.988	0.354	0.266	0.355	0.325	0.404	0.981	1.1	1.11	1.06	
HCC-366	0.941	0.948	0.95	0.905	0.888	0.31	0.337	0.333	0.34	0.36	1.06	1.13	0.953	1	1.1
HARA	1.04	1.02	0.711	0.949	0.691	0.566	0.591	0.5	0.537	0.499	1.18	1.19	1.18	1.11	0.975
NCI-H520	0.756	0.756	0.778	0.804	0.889	0.543	0.616	0.563	0.526	0.48	0.878	0.73	0.483	0.515	0.703
NCI-H1299	1.12	1.12	1.16	1.11	1.13						1.01	1.03	1.01	1.05	1.03
SW 1573	0.966	0.828	0.984	1.09	0.964	0.483	0.614	0.453	0.493	0.318	1.23	1.05	0.951	0.875	1.09
CAL-12T	1.22	1.31	1.17	1.08	1.18						0.876	1.25		1.06	0.882
COR-L 105	1.36	1.01		1.14	0.969	0.706	0.679	0.473	0.739	0.602	0.799	0.999	0.702	0.837	
NCI-H3122	0.947	0.973	0.949	0.892	0.946	0.46	0.496	0.471	0.402	0.391	1	1.01	0.924	0.964	0.978
NCI-H2228	1.08	1.26	0.932	0.794	0.672						1.04	1.47	1.11	0.926	1.33
RERF-LC-KJ	0.921	0.852	0.863	0.899	0.943	0.648	0.69	0.576	0.591	0.37	1.11	1.04	1.05	1.06	1.26
NCI-H441	1.25	0.989	0.986	1.18	1.18	0.224	0.258	0.224	0.232	0.27		0.494	0.76	0.385	0.776
A549	1.09	1.17	0.964	0.909	0.942	0.228	0.266	0.414	0.251	0.247					
NCI-H2342	1.09	1.16	1.08	1.06	0.799	0.846	0.749	0.68	0.658	0.728					
NCI-H1623	0.783	1.05	0.695	0.828	0.874										
LCLC-97TM1	0.938	1.1	0.993	1.04	0.879	0.234	0.229		0.242	0.28		1.02	0.967	0.96	0.653
NCI-H2087	1.17	1	1.3	1.2	0.967	0.313	0.271	0.27	0.281	0.309	0.863	1.04	0.661	0.815	0.702
NCI-H647	1.23	1.1	1.1	1.14	0.981	0.438	0.399	0.332	0.4	0.399	1.17	1.17	0.893	1.13	1.19
Calu-6	1.04	0.876	0.923	0.916	0.811						1.09	1.05	1.04	0.949	1.04
LCLC-103H	0.909	0.695	0.778	0.745	0.756	0.744	0.703	0.79	0.778	0.718	1.09	1.12	1.03	1.03	1.14
HCC-15	1.26	1.13	1.06	1.04	1.07	0.662	0.649	0.537	0.627	0.62	0.974	1.1	1.02	1.09	0.995
H3255	0.773	1.01		0.979	1.07	0.554	0.719	0.57	0.634	0.653	0.75	0.958	0.831	0.901	

Cell Line	relative viability (Cabozantinib + Foretinib; first compound 0.02 µM)	relative viability (Cabozantinib + Foretinib; first compound 0.06325 µM)	relative viability (Cabozantinib + Foretinib; first compound 0.2 µM)	relative viability (Cabozantinib + Foretinib; first compound 0.6325 µM)	relative viability (Cabozantinib + Foretinib; first compound 2 µM)	relative viability (Kobe2602 + Decitabine; first compound 0.2 µM)	relative viability (Kobe2602 + Decitabine; first compound 0.6325 µM)	relative viability (Kobe2602 + Decitabine; first compound 2 µM)	relative viability (Kobe2602 + Decitabine; first compound 6.325 µM)	relative viability (Kobe2602 + Decitabine; first compound 20 µM)	relative viability ([1]; first compound 0.02 µM)	relative viability ([1]; first compound 0.06325 µM)	relative viability ([1]; first compound 0.6325 µM)	relative viability ([1]; first compound 2 µM)	relative viability ([1]; first compound 0.2 µM)
NCI-H1915	1.17	1.14	1.08	1.07	1.13	0.247	0.263	0.256	0.265	0.269	1.01	1.02	1.01	0.979	0.971
NCI-H1650	1.31	1.48	1.02	1.27	0.978	0.42	0.473	0.381	0.338	0.366	0.182	0.212	0.199	0.222	0.184
NCI-H661	0.985	1.04	1.01	1.02	1.09	0.564	0.598	0.589	0.561	0.612	0.799	0.855	0.683	0.799	0.915
NCI-H2126		1.36	1.22	1.06	1.17	0.675	0.576	0.551	0.619	0.577	1.13	1.11	1.14	1.11	1.1
PC-14	0.99	1		1.05	0.976	0.224	0.201	0.235	0.234	0.247	0.952	0.89	0.829	0.8	
NCI-H522						0.693	0.654	0.649	0.642	0.756					
EMC-BAC-2	1.02	0.973	1.04	0.982	0.962	0.973	0.961	0.961	1.01	0.973	0.982	1.2	1.07	1.17	1.01
NCI-H1437	1.29	1.37	1.29	1.27	1.21	0.578	0.495	0.611	0.559	0.491	0.533	0.635	0.565	0.64	0.549
NCI-H2405	1.01	1.04	1.05	1.05	1.01	0.737	0.749	0.732	0.745	0.806	0.947	1.06	0.871	1.04	0.989
NCI-H1666	1.04	1.06	0.99	0.949	0.981	0.725	0.693	0.69	0.724	0.812	0.87	0.934	1.02	0.875	0.879
NCI-H1993	0.807	0.74	0.649	0.745	0.735	0.598	0.583	0.537	0.535	0.593	0.829	1.2	0.816	0.988	0.716
COR-L23	0.978	1.1	0.976	0.977	0.95	0.455	0.462	0.409	0.468	0.515	1.25	1	1.06	1.07	1.01
HCC-44						0.993	0.894	0.897	0.896	0.91	1.01	0.968	0.946	0.943	0.877
LU99A	0.805	0.922	0.906	0.784	0.838	0.913	1.01	0.746	0.955	0.859	1.13	1.16	0.986	1.06	1.17
NCI-H1395	0.93	1.17	1.07	1.06	0.932	0.764	0.752	0.712	0.687	0.68					
LK-2		1.27		1.52	0.863	0.379	0.293	0.283	0.313	0.442					
NCI-H1944	1.04	0.938	0.9	0.895	0.867	0.502	0.452	0.46	0.439	0.48					
NCI-H1648						0.657	0.489	0.402	0.533	0.509					
NCI-H1792						0.489	0.512	0.461	0.472	0.526	0.848	1.19	0.946	0.975	0.858
NCI-H1703	0.305	0.399	0.356	0.427	0.37						0.243	0.237	0.194	0.154	0.235
EBC-1	0.101	0.104	0.0976	0.0898	0.114						0.673	0.484	0.245	0.173	0.221
NCI-H1793	0.738	1.07	0.645	0.678	0.617	0.482	0.485	0.656	0.664	0.472					
NCI-H1563	1.02	0.907	0.953	0.912	0.893						0.92	0.875	0.824	1.08	0.904
IA-LM	1.15	1.15	1.22	1.23	1.24						0.912	0.782	0.998	0.958	0.78
SK-MES-1	0.936	1.1	0.948	1.09	0.802	0.411	0.378	0.335	0.396	0.321					
NCI-H2170	1.01	0.999	1	0.949	0.974	0.492	0.455	0.481	0.449	0.478					

From the supplement of paper PMC10307832
